Article PMC5613011, “Fenugreek Compound (N55) Lowers Plasma Glucose through the Enhancement of Response of Physiological Glucagon-like peptide-1” (Scientific Reports, 2017)

Experiments:
mice = experiment: Plasma insulin during IPGTT; assay type: in vivo, Female C57BL/6 mice
Description: (§1) All animal procedures were approved by the Institute of Biomedical Sciences Animal Care and Use Committee (Academia Sinica, Taiwan). The Experimental Animal Committee, Academia Sinica, Taiwan approved all animal experimental procedures. All animals were carefully looked after to ensure that their welfare were well looked after. Additionally, all the experimental procedures and the reagents used in this manuscript have been approved by The Ethic Committee, Academia Sinica. […]
(§2) All experiments were performed at approximately 1 PM. […] Plasma glucose was monitored using a glucometer (Accu-Check Performa, Roche, Basel, Switzerland). Glucose AUC0–120 was calculated during the 120-min time interval from IPGTT results. […] The decrease in plasma glucose was calculated by subtracting the plasma glucose in the presence of indicated reagent from that in the absence of indicated reagent; ∆ Plasma Glucose (mmol/l) = [plasma glucose at 15 min point obtained in the absence of indicated reagent] − [plasma glucose at 15 min point obtained in the presence of indicated reagent]. […]
Blood samples were collected from the tail vein before any drug administration and at 15 and 60 min after i.p. glucose loading (time 0). […] Plasma insulin levels were determined by a mouse insulin enzyme-linked immunosorbent assay kit (10–1247–01, Mercodia, Sweden) according to the manufacturer’s protocols. […]

fasted mice = experiment: IPGTT, fasted mice (plasma glucose, glucose AUC0–120); assay type: in vivo, Female C57BL/6 mice
Description: All animal procedures were approved by the Institute of Biomedical Sciences Animal Care and Use Committee (Academia Sinica, Taiwan). The Experimental Animal Committee, Academia Sinica, Taiwan approved all animal experimental procedures. All animals were carefully looked after to ensure that their welfare were well looked after. Additionally, all the experimental procedures and the reagents used in this manuscript have been approved by The Ethic Committee, Academia Sinica. All methods were performed in accordance with the relevant guidelines and regulations by the Institute of Biomedical Sciences Animal Care and Use Committee (Academia Sinica, Taiwan) and The Ethic Committee (Academia Sinica, Taiwan). Female C57BL/6 mice (BioLAS CO, Yi-Lan Breeding Center, Taiwan) aged 8–12 weeks were housed on a 12-h light/12-h dark cycle and provided with food and water ad libitum. The mice were fed with the standard chow (PicoLab Rodent Diet 5053, LabDiet, St. Louis, MO, USA) diet which consisted of 13.2% fat, 24.7% protein, and 62.1% carbohydrates as a source of calories.
All experiments were performed at approximately 1 PM. For the fasted mice, standard chow was removed away at 9 AM on the day of the IPGTT, but were provided water ad libitum for 4 h prior to the beginning of the test. All the administered materials were dissolved in isotonic sodium chloride solution (0.9% sodium chloride) containing 5% ethanol. Vehicle, N55, GLP-1′, [Aib8, E22, E30]-GLP-1(7–36) amide, Ex-4 or Ex-9 alone or in combination were administered by i.p. injection 15 min before D-(+)-glucose (2 g/kg of body weight) i.p. administration. Blood samples were drawn from the tail vein right before glucose loading (time 0) and at 15, 30, 60, 90 and 120 min after glucose administration. Plasma glucose was monitored using a glucometer (Accu-Check Performa, Roche, Basel, Switzerland). Glucose AUC0–120 was calculated during the 120-min time interval from IPGTT results. Glucose AUC0–120 was obtained using the formula AUC0–120 = [15 × (G0 + G15)/2] + [15 × (G15 + G30)/2] + [30 × (G30 + G60)/2] + [30 × (G60 + G90)/2] + [30 × (G90 + G120)/2] where G0, G15, G30, G60, G90 and G120 were blood glucose level at each time point during IPGTT. The decrease in plasma glucose was calculated by subtracting the plasma glucose in the presence of indicated reagent from that in the absence of indicated reagent; ∆ Plasma Glucose (mmol/l) = [plasma glucose at 15 min point obtained in the absence of indicated reagent] − [plasma glucose at 15 min point obtained in the presence of indicated reagent]. The decreased in glucose AUC0–120 was expressed by subtracting the AUC0–120 in the presence of f indicated reagent rom that in the absence of indicated reagent. ∆ AUC0–120 (mmol/l x min) = [AUC0–120 in the absence of indicated reagent] − [AUC0–120 in the presence of indicated reagent].
(§3) Values for each experimental group are presented as mean ± SEM. Statistics were performed using Student’s t-test and one-way analysis of variance (ANOVA). Significance levels shown in the figures are: * P < 0.05, ** P < 0.01 and *** P < 0.001 as well as ^# P < 0.05, ^## P < 0.01 and ^### P < 0.001. A P-value of less than 0.05 was considered significant. Student’s t-test that is used to compare the means of two groups and one-way ANOVA is used to compare the means of more than two groups. Five mice per group were used for the in vivo studies. The in vivo studies were performed at least twice. The in vitro assays were triplicates of three independent experiments.

non-fasted mice = experiment: IPGTT, non-fasted mice (plasma glucose, glucose AUC0–120); assay type: in vivo, Female C57BL/6 mice; settings: Ex-9 without N55 (1530 without Ex-9), mean, n = 5
Description: as §1, with “Sinica. All methods were performed in accordance with the relevant guidelines and regulations by the Institute of Biomedical Sciences Animal Care and Use Committee (Academia Sinica, Taiwan) and The Ethic Committee (Academia Sinica, Taiwan).” for “Sinica.”
as §2

GLP-1R [1] = settings: cited from earlier work
Description: Firstly, the hypoglycemic effect of N55 during IPGTT of non-fasted mice requires functional GLP-1R signaling. Secondly, although N55 could not affect the plasma glucose in fasted mice whose endogenous GLP-1 are relatively low (Fig. 2a). […] Thirdly, the hypoglycemic effect and potentiation of insulinotropic effect of GLP-1 required the functional s ... || (+ 1 further places)

GLP-1R [2] = experiment: BRET / real-time intracellular cAMP response assay, GLP-1R; assay type: cell-based
Description: Figure 7 Hypoglycemic action of [Aib8, E22, E30]-GLP-1(7–36) amide was not affected by N55. (a) Sequence alignment of GLP-1(7–36) amide, Ex-4 and mutant peptide. G22 and A30 (purple alphabets) are non-homologous residues between GLP-1(7–36) amide and Ex-4. These residues in GLP-1(7–36) amide were replaced with E (red alphabets), the corresponding residues (blue alphabets) in Ex-4, to generate DPP4-resistant GLP-1 mutant peptide ([Aib8, E22, E30]-GLP-1(7–36) amide). Effect of N55 on cAMP responses to the titration of (b) [Aib8, E22, E30]-GLP-1(7–36) amide and GLP-1′. Values are means ± SEM of triplicate assays from three independent experiments. Dose effect of [Aib8, E22, E30]-GLP-1(7–36) amide on (c) plasma glucose levels and on (d) glucose AUC0–120. Dose effect of N55 on (e) the hypoglycemic response and on (f) glucose AUC0–120 of 16.2 nmol/kg of [Aib8, E22, E30]-GLP-1(7–36) amide. Indicated doses of [Aib8, E22, E30]-GLP-1(7–36) amide and N55 were i.p. administered to group of fasted mice (n = 5) 15 min before the glucose loading (2 g/kg) of the IPGTT. Values are mean ± SEM for groups of five mice. * P < 0.05, ** P < 0.01 and *** P < 0.001 were comparisons of indicated dose of [Aib8, E22, E30]-GLP-1(7–36) amide vs control (c,d). NS, not significant.
The real-time intracellular cAMP assay was performed as previously described.
as §3

[3] = Ex-9 with GLP-1′ 5.4 nmol/kg, with or without N55, n = 5

exendin-(9–39) [Ex-9]
plasma insulin level with Ex-9 (mice; 15 and 60 min after glucose loading, Ex-9 treated non-fasted and fasted mice): 0.36 to 0.65 µg/L | effect of Ex-9 on GLP-1′ glucose lowering and N55 enhancement (fasted mice; [3]): completely eliminated the glucose lowering effect of GLP-1′ and the enhancement effect of N55 | glucose AUC0–120 in all Ex-9 treated mice (fasted mice; [3]): ~1520 mmol/l x min glucose | plasma glucose level in Ex-9 treated mice (fasted mice; [3]): 22 mmol/L | glucose AUC0–120 (non-fasted mice): 2070 mmol/l x min glucose

exendin-4 [Ex-4]
glucose AUC0–120 (fasted mice; Ex-4 5.4 nmol/kg i.p. (decreased from 1500), mean, n = 5): 780 mmol/l x min glucose | decrease in glucose level, dose dependence (fasted mice; Ex-4 i.p., n = 5): depended on the dose of Ex-4 | glucose AUCs, dose dependence (fasted mice; Ex-4 i.p., n = 5): decreased as dose of Ex-4 increased | glucose tolerance (fasted mice; Ex-4 i.p., n = 5): greatly improved the glucose tolerance | stimulation of GLP-1R in vitro by Ex-4 (GLP-1R [1]): stimulated GLP-1R in vitro

HAibEGTFTSDVSSYLEGQAAKEFIAWLVKGR-NH2 [GLP-1′, [Aib8]-GLP-1(7–36) amide, DPP4-resistant GLP-1 peptide]
15-min plasma insulin level (mice; fasted mice, GLP-1′ without N55, 15 min after glucose loading, mouse insulin ELISA, mean, n = 5): 1.44 µg/L | glucose tolerance (fasted mice; GLP-1′ 0.2 nmol/kg alone i.p., n = 5): did not affect the glucose tolerance at all | contribution to improvement of glucose excursion in presence of Ex-9 (fasted mice; GLP-1′ 5.4 nmol/kg + Ex-9, without N55): non-detectable level | 15-min plasma glucose level (fasted mice; GLP-1′ 5.4 nmol/kg i.p. without N55, mean, n = 5): 18 mmol/L | glucose excursion (AUC0–120) (fasted mice; GLP-1′ 5.4 nmol/kg i.p., n = 5): significantly improved | glucose tolerance (fasted mice; GLP-1′ 5.4 nmol/kg i.p., n = 5): significantly improved the glucose tolerance | contribution of GLP-1′ to improvement of glucose excursion (AUC0–120 with Ex-9 minus without Ex-9) (fasted mice; GLP-1′ 5.4 nmol/kg without N55): 250 mmol/l x min glucose | glucose AUC0–120 (fasted mice; GLP-1′ 5.4 nmol/kg without N55, without Ex-9): 1270 mmol/l x min glucose

[E22, E30] GLP-1 (7–36) amide
activation of receptor by point mutant of GLP-1 (GLP-1R [2]; point mutant without Aib8): retained ability to activate the receptor | response of point mutant of GLP-1 to N55 in vitro (GLP-1R [2]; point mutant without Aib8): not responsive to the enhancement of N55 in vitro

HAibEGTFTSDVSSYLEEQAAKEFIEWLVKGR-NH2 [[Aib8, E22, E30]-GLP-1(7–36) amide, DPP4-resistant GLP-1 mutant peptide]
glucose AUCs during IPGTT (fasted mice; mutant peptide i.p., n = 5): decreased glucose AUCs | plasma glucose during IPGTT (fasted mice; mutant peptide i.p., n = 5): dose-dependently lowered the plasma glucose | response to N55 (cAMP) (GLP-1R [2]; titration of peptide with N55, triplicate assays from three independent experiments): failed to respond to N55 | potency in stimulating GLP-1R (cAMP) (GLP-1R [2]; titration, compared with GLP-1′, triplicate assays from three independent experiments): displayed comparable potency in stimulating GLP-1R
